Reference: patent US6680292B1 (The Salk Institute for Biological Studies, priority 1998, dated 2004)
“Also recorded” adds a separate entry of the source.

B1: NGF: nerve growth factor; mouse 2.5S NGF at 500 pg/ml (protein, UniProt P01139 122-241, looked up)
Beta-nerve growth factor: SSTHPVFHMGEFSVCDSVSVWVGDKTTATDIKGKEVTVLAEVNINNSVFRQYFFETKCRASNPVESGCRGIDSKHWNSYCTTTHTFVKALTTDEKQAAWRFIRIDTACVCVLSRKATRRG
modifications: Beta-nerve growth factor
notes: nerve growth factor; mouse 2.5S NGF at 500 pg/ml

Tests used:
PC12 cells [1] = assay: Growth cone turning in PC12 cells; assay type: cell-based, rat; conditions: for growth cone turning: PC12 cells exposed to a focal site of compound, FIGS. 8A-8E
Protocol: The ability of compounds to stimulate neurite elongation as determined by growth cone turning was evaluated in vitro. PC 12 cells were cultured as described above (see Example 1). Cells growing in culture were exposed to a focal site of Ribavirin and control compounds and the number of growth cones with a turning angle was measured and the turned angle of each growth cone was measured.

HCN cells [2] = test system: HCN cells
HCN cells [3] = assay: FGF-2 induced neurite elongation in HCN cells; assay type: cell-based; conditions: HCN cells with FGF-2; 0.1, 0.5, 1, 100, 400 nM Ribavirin
PC12 cells [4] = assay: Neurite outgrowth / elongation in PC12 cells; assay type: cell-based, rat
Protocol: Neurite outgrowth was determined by measuring neurites from the cell body to the longest point and by counting the number of neurites per cell according to the method of Gysbers et al. (Gysbers et al., NeuroReport 3:997-1000 (1992) and Gysbers et al., Int. J. Dev. Neurosci. 14:19-34 (1996)). Cells are stained with antibodies for Rip, Glial Fibrillary Acidic Protein (GFAP), Microtubule Associated Protein 2ab (MAP2ab), and Calbindin (a Ca-buffering protein).
Briefly, cells were plated on poly-DL-ornithine-coated wells in 24-well plates at a concentration of 2.5×10^4 cells per well in RPMI-1640 medium containing 1.5% FCS, and 1.5% HS. Test compounds and NGF were added immediately after plating. […] The number of cells bearing neurites greater than one cell body diameter after each treatment with test compound was divided by the total number of cells counted.
The ratio of the number of cells bearing neurites in each treatment were divided by the total number of cells counted per treatment to determine the proportion of neurite bearing cells for each sample. The mean values (±S.E.M.) were then calculated for each treatment. […] The effect of the test compounds plus NGF is expressed as a percentage of the values obtained using 500 pg/ml NGF (which is given an arbitrary * value of 100% since neurite outgrowth proportions varied between experiments, usually from 20 to 35% for NGF-alone treatments). […]

Fibroblasts = assay: Effect on non-neuronal cells: fibroblasts; assay type: cell-based; conditions: same experimental condition as PC12 and HCN cells
astrocytes = assay: Effect on non-neuronal cells: astrocytes; assay type: cell-based; conditions: same experimental condition as PC12 and HCN cells
PC12 cells [5] = assay: Survival and proliferation of PC12 cells (cell counts); assay type: cell-based, rat
Protocol: PC12 cells were maintained in RPMI-1640 medium supplemented with 5% fetal calf serum (FCS), 5% heat-inactivated horse serum (HS), 100 units/ml penicillin G sodium, 100 μg/ml streptomycin sulfate and 0.245 μg/ml amphotericin B. NGF-treated cells were grown in the presence of 500 pg/ml mouse 2.5S NGF. The 1-(β-D-ribofuranosyl)-1H-1,2,4-triazole-3-carboxamide was supplied by ICN Pharmaceuticals. HCN cells were maintained in serum-free N2 basal media with 500 pg/ml of FGF-2. Cells were plated on plastic tissue culture plates coated with polyornithine.
PC12 cells were grown as described above and plated at a density of 10,000 cells/well in RPMI with 500 pg/ml NGF. […] Cells were counted and neurite elongation evaluated on days 0, 1 and 3. The media was not changed for the duration of the experiment.

| Molecule | growth cone turning (PC12 cells [1]) | concentrations at which effects were more pronounced (HCN cells [2]; HCN cells with FGF-2) | effect on FGF-2 actions (proliferation, survival) (HCN cells [2]; HCN cells with FGF-2, up to 7 days, FIGS. 4 and 5) | effect on cell survival or proliferation (HCN cells [2]; HCN cells, Ribavirin alone (no FGF-2), 12,500 or 25,000 cells/well, FIG. 3) | elongation and networking of the neurites (HCN cells [3]) | effective concentrations for growth cone turning (PC12 cells [1]; PC12 cells) | neurite elongation and networking (PC12 cells [4]; PC12 cells with NGF, 100 pM, 500 pM, 1 nM, 100 nM and 400 nM) | effect on fibroblasts (Fibroblasts) | effect on astrocytes (astrocytes) | effect on cell survival or proliferation (PC12 cells [5]; PC12 cells, absence of NGF, various concentrations, FIG. 1) | effects of NGF on the survival and proliferation of PC12 cells (PC12 cells [5]; with 500 pg/ml NGF, assessed at day 1 and day 3, FIG. 2) | neurite outgrowth proportions (proportion of neurite bearing cells) (PC12 cells [4]; NGF-alone treatments, 500 pg/ml NGF, varied between experiments) |
| --- | --- | --- | --- | --- | --- | --- | --- | --- | --- | --- | --- | --- |
| Nc1nc2c(nc(Br)n2[C@@H]2O[C@@H]3COP(=O)(O)O[C@H]3[C@H]2O)c(=O)[nH]1 [8-bromo-cGMP] | turning away from the site (i.e., repulsion |  |  |  |  |  |  |  |  |  |  |  |
| NC(=O)c1ncn([C@@H]2O[C@H](CO)[C@@H](O)[C@H]2O)n1 [Ribavirin, 1-(β-D-ribofuranosyl)-1H-1,2,4-triazole-3-carboxamide] | stimulated growth cone turning; also recorded: increased turning towards the Ribavirin site (attraction) | less than 1 nM | augmented/enhanced FGF-2 actions | no effect | increased elongation and networking | nanomolar range | enhanced at all concentrations tested | without effect | without effect | No statistically significant effect | augmented/enhanced |  |
| B1 |  |  |  |  |  |  |  |  |  |  |  | 20 to 35% |
